These results are taken from US20260297080A1, “BICYCLIC COMPOUNDS AS CDK INHIBITORS” (BeOne Medicines I GmbH, priority 2022, published 2026).

The target of assay [1] is CDK2/Cyclin E1 (Homo sapiens, UniProt P24941). The assay is described as follows: CDK2/Cyclin E1 Biochemical Assay (TR-FRET), 0.060 mM ATP. Conditions: 0.15 μM Rb (Ser780)-biotin substrate, pH7.0, 60 min preincubation, 120 min reaction, room temperature. The method, then: (§1) CDK2/Cyclin E1 and CDK1/Cyclin B1 Biochemical Assays
(§2) Compounds disclosed herein were tested for inhibition of CDK2/Cyclin E1 or CDK1/Cyclin B1 kinase in an assay based on the time-resolved fluorescence-resonance energy transfer (TR-FRET) methodology. The assay was carried out in 384-well low volume black plates in a reaction mixture containing CDK2/Cyclin E1 or CDK1/Cyclin B1, 0.060 mM ATP for CDK2/Cyclin E1 or 0.015 mM ATP for CDK1/Cyclin B1, 0.15 μM Rb (Ser780)-biotin substrate and 0-10 μM compound in buffer containing 50 mM HEPES pH7.0, 0.02% NaN3, 0.01% BSA, 0.1 mM Orthovanadate, 50 mM MgCl2, 1 mM DTT and 0.005% Tween-20. The kinase was incubated with compound for 60 minutes at room temperature and the reaction was initiated by the addition of ATP and Rb (Ser780)-biotin substrate. After reaction at room temperature for 120 minutes, an equal volume of stop/detection solution was added according to the manufacture's instruction (Cisbio Bioassays). The stop/detection solution contained Streptavidin-XL665 and Anti-pRb (Ser780) mAb-Eu Cryptate in Detection buffer (Cisbio Bioassays). Plates were incubated at room temperature for 60 minutes, and the TR-FRET signals (ex337 nm, em665 nm/620 nm) were recorded on a PHERAstar FSX plate reader (BMG Labtech). The inhibition percentage of CDK2/Cyclin E1 or CDK1/Cyclin B1 kinase activity in presence of increasing concentrations of compounds was calculated based on the ratio of fluorescence at 665 nm to that at 620 nm. The IC50 for each compound was derived from fitting the data to the four-parameter logistic equation by Dotmatics.

Assay [2] deals with CDK1/Cyclin B1 (Homo sapiens, UniProt P06493). The assay is described as follows: CDK1/Cyclin B1 Biochemical Assay (TR-FRET), 0.015 mM ATP. Conditions: 0.15 μM Rb (Ser780)-biotin substrate, pH7.0, 60 min preincubation, 120 min reaction, room temperature. The method, then: as §1, §2
Chain of CDK1/Cyclin B1 (P06493 whole entry): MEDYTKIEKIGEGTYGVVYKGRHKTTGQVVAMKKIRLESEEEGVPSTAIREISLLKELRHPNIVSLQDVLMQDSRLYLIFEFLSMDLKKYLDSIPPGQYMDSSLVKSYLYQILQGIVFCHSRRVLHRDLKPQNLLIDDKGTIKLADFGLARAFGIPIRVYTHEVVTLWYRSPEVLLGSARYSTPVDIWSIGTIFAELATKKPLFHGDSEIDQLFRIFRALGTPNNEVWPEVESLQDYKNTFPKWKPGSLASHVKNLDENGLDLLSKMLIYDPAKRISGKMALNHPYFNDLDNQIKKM
Chain of CDK1/Cyclin B1 (P14635 whole entry partner): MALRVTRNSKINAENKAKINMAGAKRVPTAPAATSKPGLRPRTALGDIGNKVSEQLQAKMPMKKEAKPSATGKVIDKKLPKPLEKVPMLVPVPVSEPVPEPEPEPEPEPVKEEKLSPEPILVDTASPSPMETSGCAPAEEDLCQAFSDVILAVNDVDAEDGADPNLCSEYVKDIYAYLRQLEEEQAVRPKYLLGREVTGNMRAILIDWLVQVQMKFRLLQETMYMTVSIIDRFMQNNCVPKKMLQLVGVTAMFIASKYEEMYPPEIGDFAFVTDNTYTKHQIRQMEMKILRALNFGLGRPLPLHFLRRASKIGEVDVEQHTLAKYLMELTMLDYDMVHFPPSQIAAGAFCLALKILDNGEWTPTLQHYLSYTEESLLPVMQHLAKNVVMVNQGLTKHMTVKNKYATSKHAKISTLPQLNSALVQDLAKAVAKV
In general terms: In TR-FRET formats the signal depends on donor and acceptor labels being close together.

The structures appear in SMILES notation.

As for `CCCNC(=O)O[C@H]1CC[C@@H](c2cc(Nc3ccc4c(c3Cl)CNS4(=O)=O)n[nH]2)C1` (racemic) [Example 39, cis-3-(3-((4-chloro-1,1-dioxido-2,3-dihydrobenzo[d]isothiazol-5-yl)amino)-1H-pyrazol-5-yl)cyclopentyl propylcarbamate], the results for the half-inhibitory concentration (IC50) in assay [1] and in assay [2] were 15 nM and 374 nM, respectively. For the molecule `CC1(NC(=O)O[C@H]2CC[C@@H](c3cc(Nc4ccc5c(c4Cl)CNS5(=O)=O)n[nH]3)C2)CC1` (racemic) [Example 40, cis-3-(3-((4-chloro-1,1-dioxido-2,3-dihydrobenzo[d]isothiazol-5-yl)amino)-1H-pyrazol-5-yl)cyclopentyl(1-methylcyclopropyl)carbamate], the 50% inhibitory concentration (IC50) in assay [1] turned out to be 2.3 nM; in assay [2] it was 154 nM. For `CC[C@H](C)NC(=O)O[C@H]1CC[C@@H](c2cc(Nc3ccc4c(c3F)CN(C3CC3)S4(=O)=O)n[nH]2)C1` (racemic) [Example 117, cis-3-(3-((2-cyclopropyl-4-fluoro-1,1-dioxido-2,3-dihydrobenzo[d]isothiazol-5-yl)amino)-1H-pyrazol-5-yl)cyclopentyl((S)-sec-butyl)carbamate] the same measures were 9.6 nM and 431 nM. For `CCCNC(=O)O[C@H]1CC[C@@H](c2cc(Nc3ccc4c(c3F)CN(C3CC3)S4(=O)=O)n[nH]2)C1` (racemic) [Example 118, cis-3-(3-((2-cyclopropyl-4-fluoro-1,1-dioxido-2,3-dihydrobenzo[d]isothiazol-5-yl)amino)-1H-pyrazol-5-yl)cyclopentyl propylcarbamate] the same measures were 3.1 nM and 345 nM. Regarding `CC1(NC(=O)O[C@H]2CC[C@@H](c3cc(Nc4ccc5c(c4F)CN(C4CC4)S5(=O)=O)n[nH]3)C2)CC1` (racemic) [Example 119, cis-3-(3-((2-cyclopropyl-4-fluoro-1,1-dioxido-2,3-dihydrobenzo[d]isothiazol-5-yl)amino)-1H-pyrazol-5-yl)cyclopentyl(1-methylcyclopropyl)carbamate], the half-maximal inhibitory concentration (IC50) came out at 2.7 nM in assay [1] and 146 nM in assay [2]. With `CC1(NC(=O)O[C@H]2CC[C@@H](c3cc(Nc4ccc5c(c4F)CN(CCO)S5(=O)=O)n[nH]3)C2)CC1` (racemic) [Example 128, cis-3-(3-((4-fluoro-2-(2-hydroxyethyl)-1,1-dioxido-2,3-dihydrobenzo[d]isothiazol-5-yl)amino)-1H-pyrazol-5-yl)cyclopentyl(1-methylcyclopropyl)carbamate], the figures for the half-maximal inhibitory concentration (IC50) in assay [1] and in assay [2] were 1.8 nM and 98 nM, respectively. Turning to `[2H]C([2H])([2H])N1Cc2c(ccc(Nc3cc([C@H]4CC[C@@H](OC(=O)NC5(C)CC5)C4)[nH]n3)c2F)S1(=O)=O` (racemic) [Example 132, cis-3-(3-((4-fluoro-2-(methyl-d3)-1,1-dioxido-2,3-dihydrobenzo[d]isothiazol-5-yl)amino)-1H-pyrazol-5-yl)cyclopentyl(1-methylcyclopropyl)carbamate], the IC50 in assay [1] was 1.6 nM; in assay [2], 104 nM.

As to `O=C(NCCC(F)(F)F)O[C@H]1CC[C@@H](c2cc(Nc3ccc4c(c3F)CNS4(=O)=O)n[nH]2)C1` (racemic) [Example 154, cis-3-(3-((4-fluoro-1,1-dioxido-2,3-dihydrobenzo[d]isothiazol-5-yl)amino)-1H-pyrazol-5-yl)cyclopentyl(3,3,3-trifluoropropyl)carbamate], the IC50 stood at 1.7 nM in assay [1] and 333 nM in assay [2]. For `CC(C)NC(=O)O[C@H]1CC[C@@H](c2cc(Nc3ccc4c(c3F)CS(=O)(=O)C4)n[nH]2)C1` (relative stereo) [Example 317, cis-3-(3-((4-fluoro-2,2-dioxido-1,3-dihydrobenzo[c]thiophen-5-yl)amino)-1H-pyrazol-5-yl)cyclopentyl isopropylcarbamate], the IC50 in assay [2] was 18 nM.

As a reminder, the IC50 is the concentration needed to halve the response being measured. Low values mean greater potency, high ones weaker potency.
